The target of one data set is T1, human GIP receptor (Homo sapiens, UniProt P48546).
T1 construct: expressed in transfected cells; host or cells: BHK (parent line BHKTS13), clone BHK CRE luc2P hGIPR
T1 sequence (P48546 22-466): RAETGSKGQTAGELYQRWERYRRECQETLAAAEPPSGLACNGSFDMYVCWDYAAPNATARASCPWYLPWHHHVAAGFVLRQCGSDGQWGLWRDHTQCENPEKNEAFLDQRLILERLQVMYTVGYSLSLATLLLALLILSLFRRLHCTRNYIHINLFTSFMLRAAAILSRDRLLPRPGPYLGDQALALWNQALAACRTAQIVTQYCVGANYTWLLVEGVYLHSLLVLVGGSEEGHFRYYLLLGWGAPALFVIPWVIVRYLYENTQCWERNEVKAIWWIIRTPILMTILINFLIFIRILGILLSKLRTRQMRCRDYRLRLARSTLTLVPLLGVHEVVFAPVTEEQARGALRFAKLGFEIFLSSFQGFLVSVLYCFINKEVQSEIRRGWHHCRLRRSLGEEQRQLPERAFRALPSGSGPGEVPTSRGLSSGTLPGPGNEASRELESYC
Description: In vitro functional potency, CRE luciferase reporter, whole BHK cells (hGIPR). In kind it is cell-based. The conditions noted are these: BHK CRE luc2P hGIPR cells. Put shortly: (§1)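 Potencies are replicate means (n≥2) from non-linear log(agonist) vs response fits of CRE-driven luminescence. Cells were overnight-plated BHK CRE luc2P lines transfected with human GIPR or GLP-1R, 5000/well.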

In a further data set the target is human GLP-1 receptor (Homo sapiens, UniProt P43220). Description: In vitro functional potency, CRE luciferase reporter, whole BHK cells (hGLP-1R). Also on record: expressed in transfected cells; host or cells: BHK (parent line BHKTS13), clone BHK CRE luc2P hGLP-1R. The conditions noted are these: BHK CRE luc2P hGLP-1R cells. The format is cell-based. Put shortly: as §1

A short description of data set [1]: Pharmacokinetic study in dogs after oral dosing of tablets with SNAC. The format is in vivo, Beagle dogs. The conditions noted are these: for Tmax / half-life: male. As for the experimental part:
The purpose of this example is to determine the half-life and plasma exposure in vivo of the compounds of the present invention after p.o. administration to beagle dogs, i.e. the terminal half-life and concentration of test substance that reaches circulation with time. This is done in a pharmacokinetic (PK) study, where these parameters of the compound in question are determined. By terminal half-life is generally meant the period of time it takes to halve a certain plasma concentration, measured after the initial distribution phase.
The amount of SNAC in the tablet composition was 100-300 mg, the amount of magnesium stearate in the tablet composition was 7.7 mg, and the target amount of each test substance in the tablet composition was 3-4 mg.
Male beagle dogs, 1-7 years of age and weighing 9-17 kg during the study period, were included in the study. The dogs were dosed in a fasting state. The dogs were group housed in pens (12 hours light: 12 hours dark), and fed individually and restrictedly once daily with Royal Canin Medium Adult dog food (Royal Canin Products, China Branch, or Brogaarden A/S, Denmark). The dogs were used for repeated PK studies with a suitable wash-out period between successive dosing. An appropriate acclimatization period was given prior to initiation of the first PK study. All handling, dosing, and blood sampling of the animals were performed by trained and skilled staff. Before the studies, the dogs were fasted overnight and from 0 to 4 hours after dosing. The dogs were restricted to water 1 hour before dosing until 4 hours after dosing, but otherwise had ad libitum access to water during the whole period.
The compositions were administered by a single oral dosing to the dogs in groups of 6-8 dogs. […] The mouth was then closed, and 10 mL of tap water was given by syringe or gavage to facilitate swallowing of the tablet.
One blood sample was drawn before dosing, and additional samples were drawn at predefined time points after dosing for up to 240 hours, such as up to 10 hours, to adequately cover the full plasma concentration-time absorption profile of the test substance. For each blood sample time point, approximately 0.8 mL of whole blood was collected in a 1.5 mL EDTA-coated tube, which was gently turned to mix the sample with EDTA. Blood samples were collected in EDTA buffer (8 mM) and then centrifuged at 4° C. 2000 g for 10 minutes. Plasma was pipetted into Micronic tubes on dry ice, and kept at −20° C. or lower until analysis. Blood samples were taken as appropriate, for example from a venflon in the cephalic vein in the front leg for the first 2 hours and then with syringe from the jugular vein for the rest of the time points. The first few drops were allowed to drain from the venflon to avoid heparin saline from the venflon in the sample.
All blood samples were collected into test tubes containing EDTA for stabilisation and kept on ice until centrifugation. Plasma was separated from whole blood by centrifugation and the plasma was stored at −20° C. or lower until analysis.
The plasma was analysed for test substance using LC-MS (Liquid Chromatography-Mass Spectrometry) as known to the person skilled in the art. […] RP-HPLC separation was achieved using a linear gradient of 1:1 acetonitrile/methanol in 1% aqueous formic acid using either: a Phenomenex Onyx Monolithic C18 column (50×2.0 mm) and a flow rate of 0.8 mL/min at 30° C.; or an Agilent Poroshell 120 SB-C18 column (50×2.1 mm, 2.7 μm) at a flow rate of 0.4 mL/min at 60° C. The mass spectrometer was operated in either positive ionization SIM mode or positive ionization PRM mode.
For each individual animal, a plasma concentration-time profile was analysed by a non-compartmental model in Pharsight Phoenix WinNonLin ver.

Where [2] appears, read: 0% HSA, read-out: hGIPR, CRE Luc 0% HSA EC50.
Where [3] appears, read: hGIPR, CRE Luc 1% HSA EC50, 1% HSA.
[4] abbreviates: 0% HSA, read-out: hGLP-1R, CRE Luc 0% HSA EC50.
The mark [5] stands for this setting: hGLP-1R, CRE Luc 1% HSA EC50, 1% HSA.
[6] abbreviates: oral tablet, SNAC 100 mg, test substance 3 mg, Beagle dogs, arithmetic mean.

Where two headings read alike, the source gives them in different places. Starred links: 1 amine or outer side, 2 acyl side, 3 side chain; linkers in the order of their positions; H or OH if unused. Non-standard residues stand in square brackets, D forms with d. Residues, ends and D or L forms follow the SMILES beside them. Groups on a side chain read outwards from the residue. *: point of attachment. C18 diacid = O=C(O)CCCCCCCCCCCCCCCCC(=O)*; γGlu = O=C(O)[C@H](CCC(=O)[*:2])N[*:1]; εLys = N[C@@H](CCCCN[*:1])C(=O)[*:2]; Aib = CC(C)(N)C(=O)O

Chain of human GLP-1 receptor (P43220 24-463): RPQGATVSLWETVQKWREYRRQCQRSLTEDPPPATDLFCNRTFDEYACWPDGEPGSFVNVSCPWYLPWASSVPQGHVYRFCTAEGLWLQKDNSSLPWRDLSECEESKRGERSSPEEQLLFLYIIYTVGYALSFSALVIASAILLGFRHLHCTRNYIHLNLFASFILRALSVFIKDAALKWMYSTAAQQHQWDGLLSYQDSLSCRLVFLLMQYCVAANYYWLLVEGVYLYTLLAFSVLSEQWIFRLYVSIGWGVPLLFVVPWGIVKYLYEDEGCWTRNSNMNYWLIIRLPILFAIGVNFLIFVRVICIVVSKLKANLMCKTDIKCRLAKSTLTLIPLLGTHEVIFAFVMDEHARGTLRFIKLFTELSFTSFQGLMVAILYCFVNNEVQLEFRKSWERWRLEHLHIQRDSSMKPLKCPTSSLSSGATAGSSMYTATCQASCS

With `CC[C@H](C)[C@H](NC(=O)[C@H](Cc1ccccc1)NC(=O)[C@H](CCC(=O)O)NC(=O)[C@H](CCCNC(=N)N)NC(=O)[C@H](C)NC(=O)[C@H](C)NC(=O)[C@H](CCC(N)=O)NC(=O)[C@H](CCC(=O)O)NC(=O)[C@H](CCC(=O)O)NC(=O)[C@H](CC(C)C)NC(=O)[C@H](CC(C)C)NC(=O)[C@H](CCCCNC(=O)[C@@H](N)CCCCNC(=O)[C@@H](N)CCCCNC(=O)CC[C@H](NC(=O)CCCCCCCCCCCCCCCCC(=O)O)C(=O)O)NC(=O)[C@H](CO)NC(=O)[C@H](Cc1ccc(O)cc1)NC(=O)[C@H](CC(=O)O)NC(=O)[C@H](CO)NC(=O)[C@@H](NC(=O)[C@H](Cc1ccccc1)NC(=O)[C@@H](NC(=O)CNC(=O)[C@H](CCC(=O)O)NC(=O)C(C)(C)NC(=O)[C@@H](N)Cc1ccc(O)cc1)[C@@H](C)O)[C@@H](C)O)C(=O)N[C@@H](CCC(=O)O)C(=O)N[C@@H](Cc1c[nH]c2ccccc12)C(=O)N[C@@H](CC(C)C)C(=O)N[C@@H](CC(C)C)C(=O)N[C@@H](C)C(=O)NCC(=O)NCC(=O)N1CCC[C@H]1C(=O)N[C@@H](CO)C(=O)N[C@@H](CO)C(=O)NCC(=O)N[C@@H](C)C(=O)N1CCC[C@H]1C(=O)N1CCC[C@H]1C(=O)N1CCC[C@H]1C(=O)N[C@@H](CO)C(=O)O` [Compound 40], the half-maximal effective concentration (EC50) amounted to 9.5 pM at human GIP receptor (setting [2]), 501 pM on human GIP receptor (setting [3]), 6.4 pM on human GLP-1 receptor (setting [4]) and 334 pM on human GLP-1 receptor (setting [5]). Moreover, the AUC/Dose in data set [1] (dog, in vivo, po) turned out to be 27.0 kg·h/L. Besides, the Cmax/Dose in data set [1] (dog, in vivo, po) is 0.48 kg/L. For the same compound, the Tmax in data set [1] (Beagle, dog, in vivo, po) came out at 2 h. The half-life in data set [1] (Beagle, dog, in vivo, po) was 61 h.
For `CC[C@H](C)[C@H](NC(=O)[C@H](Cc1ccccc1)NC(=O)[C@H](CCC(=O)O)NC(=O)[C@H](CCCNC(=N)N)NC(=O)[C@H](C)NC(=O)[C@H](C)NC(=O)[C@H](CCC(N)=O)NC(=O)[C@H](CCCCNC(=O)[C@@H](N)CCCCNC(=O)[C@@H](N)CCCCNC(=O)CC[C@H](NC(=O)CCCCCCCCCCCCCCCCC(=O)O)C(=O)O)NC(=O)[C@H](CCC(=O)O)NC(=O)[C@H](CC(C)C)NC(=O)[C@H](CC(C)C)NC(=O)[C@@H](NC(=O)[C@H](CO)NC(=O)[C@H](Cc1ccc(O)cc1)NC(=O)[C@H](CC(=O)O)NC(=O)[C@H](CO)NC(=O)[C@@H](NC(=O)[C@H](Cc1ccccc1)NC(=O)[C@@H](NC(=O)CNC(=O)[C@H](CCC(=O)O)NC(=O)C(C)(C)NC(=O)[C@@H](N)Cc1ccc(O)cc1)[C@@H](C)O)[C@@H](C)O)[C@@H](C)CC)C(=O)N[C@@H](CC(N)=O)C(=O)N[C@@H](Cc1c[nH]c2ccccc12)C(=O)N[C@@H](CC(C)C)C(=O)N[C@@H](CC(C)C)C(=O)N[C@@H](C)C(=O)NCC(=O)NCC(=O)N1CCC[C@H]1C(=O)N[C@@H](CO)C(=O)N[C@@H](CO)C(=O)O` [Compound 20] (H-Y[Aib]EGTFTSDYSILLEK([εLys-εLys-γGlu-C18 diacid])QAAREFINWLLAGGPSS-OH), the EC50 on human GIP receptor (setting [2]) was determined as 7.1 pM; on human GIP receptor (setting [3]) it was 247 pM; on human GLP-1 receptor (setting [4]), 4.2 pM; at human GLP-1 receptor (setting [5]), 256 pM. Further, in data set [1] (Beagle, dog, in vivo, po), the half-life is 56 h. Moreover, the Tmax in data set [1] (dog, plasma, oral tablet, SNAC 100 mg, test substance 3 mg, Beagle dogs, median, read-out: Tmax) worked out at 2 h. In addition, in data set [1] (setting [6]), the AUC/Dose came out at 10.8 kg·h/L. In data set [1] (setting [6]), this compound came in with a Cmax/Dose of 0.21 kg/L.
Take `CC[C@H](C)[C@H](NC(=O)[C@H](Cc1ccccc1)NC(=O)[C@H](CCC(=O)O)NC(=O)[C@H](CCC(N)=O)NC(=O)[C@H](C)NC(=O)[C@H](C)NC(=O)[C@H](CCC(N)=O)NC(=O)[C@H](CCCCNC(=O)[C@@H](N)CCCCNC(=O)[C@@H](N)CCCCNC(=O)CC[C@H](NC(=O)CCCCCCCCCCCCCCCCC(=O)O)C(=O)O)NC(=O)[C@H](CCC(=O)O)NC(=O)[C@H](CC(C)C)NC(=O)[C@H](CC(C)C)NC(=O)[C@@H](NC(=O)[C@H](CO)NC(=O)[C@H](Cc1ccc(O)cc1)NC(=O)[C@H](CC(=O)O)NC(=O)[C@H](CO)NC(=O)[C@@H](NC(=O)[C@H](Cc1ccccc1)NC(=O)[C@@H](NC(=O)CNC(=O)[C@H](CCC(=O)O)NC(=O)C(C)(C)NC(=O)[C@@H](N)Cc1ccc(O)cc1)[C@@H](C)O)[C@@H](C)O)[C@@H](C)CC)C(=O)N[C@@H](CC(N)=O)C(=O)N[C@@H](Cc1c[nH]c2ccccc12)C(=O)N[C@@H](CC(C)C)C(=O)N[C@@H](CC(C)C)C(=O)N[C@@H](C)C(=O)NCC(=O)NCC(=O)N1CCC[C@H]1C(=O)N[C@@H](CO)C(=O)N[C@@H](CO)C(=O)NCC(=O)N[C@@H](C)C(=O)N1CCC[C@H]1C(=O)N1CCC[C@H]1C(=O)N1CCC[C@H]1C(=O)N[C@@H](CO)C(=O)O` [Compound 24] (H-Y[Aib]EGTFTSDYSILLEK([εLys-εLys-γGlu-C18 diacid])QAAQEFINWLLAGGPSSGAPPPS-OH): the EC50 on human GIP receptor (setting [2]) amounted to 3.9 pM; at human GIP receptor (setting [3]) it was 115 pM; on human GLP-1 receptor (setting [4]) it was 12.1 pM; on human GLP-1 receptor (setting [5]), 490 pM. In data set [1] (dog, in vivo, po), this compound gave an AUC/Dose of 16.4 kg·h/L. The same compound gave a Cmax/Dose in data set [1] (dog, in vivo, po) of 0.29 kg/L. The Tmax in data set [1] (Beagle, dog, in vivo, po) was determined as 1.8 h. In addition, the half-life in data set [1] (Beagle, dog, in vivo, po) is 74 h.

For the origin of these results see US20220177538A1, “CO-AGONISTS AT GLP-1 AND GIP RECEPTORS SUITABLE FOR ORAL DELIVERY” (Novo Nordisk A/S, priority 2020, published 2022).
